These results are taken from patent US20230125429A1 (priority 2017, published 2023).

One series has as its system HepG2 cells. The series is described as follows: Blocking the AC-cAMP-PKA pathway, growth of HepG2 cells. The series is classed as cell-based, human. The note with it: Triptonide 1 µM, Vidarabine 10 µM, PKI 2.5 µM, alone or combined.
The test system of another series is PKA. Description: Measurement of PKA activity in HepG2 cells. The series is classed as cell-based, human. Conditions: one-hour treatment in regular medium (Trypsin 50 nM, Triptonide 1 µM); hour 9 and 10 after mimosine.
A further series deals with cAMP. The series is described as follows: Measurement of cAMP levels in HepG2 cells. It is filed as cell-based, human. The note with it: treatment 2 hours after mimosine; Trypsin 50 nM, Triptonide 1 µM; serum-free. A general note: cAMP levels reflect the balance of adenylyl cyclase and phosphodiesterase activity.
The next series deals with ERK phosphorylation. The series is described as follows: ERK phosphorylation in HepG2 cells (Western blot). The series is classed as cell-based, human. The note with it: serum-starved HepG2; trypsin 50 nM, Triptolide 1 µM, Triptonide 1 µM; 0-40 minutes.
In series [1] the test system is HepG2-GFP orthotopic xenograft tumor. Conditions: Triptonide 25 mg/kg by gavage every other day; Sorafenib intraperitoneal; n=10 per cohort.
Series [2] has as its system mimosine treated HepG2 cells. The series is described as follows: Cell cycle analysis by flow cytometry (PI staining). The series is classed as cell-based, human. The note with it: 2 µM, by 24 hours. A general note: Flow cytometry measures light scatter and fluorescence of single cells or particles in a stream.
Series [3] concerns Par2 knockout keratinocytes. The series is described as follows: Growth of Par2 knockout primary keratinocytes, continuous exposure. The series is classed as cell-based, mouse. The note with it: as low as 1.25 nM (lowest examined). As for the experimental part:
For the neonatal mouse keratinocyte culture, the dorsal skins of neonatal wild type or Par2 knockout mice were harvested from wild type or Par2 knockout mice, respectively. The skins were incubated overnight at 4° C. in a 0.25% solution of trypsin (Life Technologies, USA) in phosphate-buffered saline (PBS) without calcium and magnesium. The epidermis was then separated from the adjoining dermis, and the dispersed epidermal cells were collected in suspension Eagle’s minimal essential medium (SMEM) (Life Technologies, USA) supplemented with glutamine and 8% calcium free fetal calf serum (FCS) (Life Technologies, USA). The cells were plated onto individual wells of 48 well plates (Corning, USA), which were pre-coated with collagen (Life Technologies, USA), at a density of 70,000 cells/well. The cell cultures were kept for 12 hours at 34° C. in a humidified incubator containing 8% CO2. […]
For primary hepatocytes, the seeded cells were monitored for up to 48 hours either without any treatment (as a control) or with various types of treatments. For primary keratinocytes, cells in 48-well plates were monitored either without any treatment or with various types of treatment for up to 96 hours. For HepG2, cells 96-well plates were monitored either without any treatment or with various types of treatments for up to 48 hours. […]

In series [4] the test system is wild-type keratinocytes. The series is described as follows: Growth of wild-type primary keratinocytes, continuous exposure. Conditions: as low as 1.25 nM (lowest examined), continuous exposure. It is filed as cell-based, mouse. How it is done:
For the neonatal mouse keratinocyte culture, the dorsal skins of neonatal wild type or Par2 knockout mice were harvested from wild type or Par2 knockout mice, respectively. The skins were incubated overnight at 4° C. in a 0.25% solution of trypsin (Life Technologies, USA) in phosphate-buffered saline (PBS) without calcium and magnesium. The epidermis was then separated from the adjoining dermis, and the dispersed epidermal cells were collected in suspension Eagle’s minimal essential medium (SMEM) (Life Technologies, USA) supplemented with glutamine and 8% calcium free fetal calf serum (FCS) (Life Technologies, USA). The cells were plated onto individual wells of 48 well plates (Corning, USA), which were pre-coated with collagen (Life Technologies, USA), at a density of 70,000 cells/well. The cell cultures were kept for 12 hours at 34° C. in a humidified incubator containing 8% CO2. Low calcium (0.05 mM) S-MEM, containing 8% FCS was then added to initiate the culture. The culture medium was changed every 2 days.
For primary hepatocytes, the seeded cells were monitored for up to 48 hours either without any treatment (as a control) or with various types of treatments. For primary keratinocytes, cells in 48-well plates were monitored either without any treatment or with various types of treatment for up to 96 hours. For HepG2, cells 96-well plates were monitored either without any treatment or with various types of treatments for up to 48 hours. The IncuCyte Zoom was set to take a set of images at fixed locations (4 per well for 96-well plates and 16 per well for 48-well plates and 12-well plates) every three hours.
To address this question, we took a genetic approach.

For series [5], the system named is mimosine-treated HepG2 cells. The series is described as follows: One-hour treatment of mimosine-treated HepG2 cells, live cell imaging. It is filed as cell-based, human. Conditions: one-hour treatment.
Series [6] has as its system wild-type keratinocytes. Description: Growth of wild-type primary keratinocytes, short-term treatment. It is filed as cell-based, mouse. Conditions: as high as 800 nM, one hour.
In series [7] the test system is Par2 knockout keratinocytes. The series is described as follows: Growth of Par2 knockout primary keratinocytes, one hour treatment. It is filed as cell-based, mouse. Conditions: as high as 800 nM, one hour.

With `Nc1ncnc2c1ncn2[C@@H]1O[C@H](CO)[C@@H](O)[C@@H]1O` [Vidarabine, reference compound], the “effect on growth of HepG2 cells” value in the series on HepG2 cells is on record as “no significant effects”.
For Trypsin, in the series on PKA, the “level of PKA activity around G2/M transition” value is “reduced significantly”. The “levels of cAMP” value in the series with cAMP was “modest and transient elevations”. Further, the “levels of phosphorylated ERK” value with ERK phosphorylation was “two-stage increase”.
For `CNC(=O)c1cc(Oc2ccc(NC(=O)Nc3ccc(Cl)c(C(F)(F)F)c3)cc2)ccn1` [Sorafenib, reference compound], the “tumor specific (GFP) signals” value in [1] is listed as “lower intensities of the tumor specific signals at all time points”.
On to `CC(C)[C@]12O[C@H]1[C@@H]1O[C@]13[C@]1(O[C@H]1C[C@H]1C4=C(CC[C@@]13C)C(=O)OC4)[C@@H]2O` [Triptolide, reference compound], for which the “sub-G1 (<2N, apoptotic) population” value in series [2] is “significant peaks of the sub-G1”. Further, the “lethality for Par2 knockout keratinocytes” value in [3] is listed as “complete lethality”. For the same compound, in the series with wild-type keratinocytes [4], the “lethality for wild-type keratinocytes” value is “complete lethality”. Moreover, the “levels of phosphorylated ERK” value with ERK phosphorylation is recorded as “no significant effects”. Besides, the “growth and mitotic catastrophe” value in [5] (1 µM, regardless of time) is given as “growth inhibitory, but did not cause mitotic catastrophe”. Further, in [5] (2 µM, at 0 and 2 hours after mimosine treatment), the “growth and chromatin condensation” value was “not only growth inhibitory, but also caused chromatin condensation”. Also, the “growth inhibitory effect on wild-type keratinocytes” value with wild-type keratinocytes [6] is recorded as “did not have any significant growth inhibitory effect”. Moreover, the “growth inhibitory effect on Par2 knockout keratinocytes” value in series [7] is recorded as “did not have any significant growth inhibitory effect”.
